# Experimental data reported in patent US20220354834A1, “METHODS AND MATERIALS FOR TREATING NEUROTOXICITY” (Cavion, Inc., priority 2019, published 2022).
# Experiments:
# [1] = tested on: RPMI-8226 human myeloma xenografts; assay: In vivo BTZ and combination (BTZ and CX-8998) anti-tumor (interference) study, tumor volume; design: species or system athymic nude mouse
# Source text: Care and husbandry of mice complied with USDA (U.S. Department of Agriculture) Animal Welfare Act and START IACUC (Institutional Animal Care and Use Committee) regulations. The protocol was reviewed and approved by START IACUC. Mice were individually housed in Sealsafe® Plus ventilated cages (Techniplast, West Chester, Pa., USA) and fed with Teklad 2919 (Envigo, Somerset, N.J., USA), irradiated, 19% protein, 9% fat and 4% fiber mouse chow. Mice were maintained under controlled environmental conditions (22+/−2° C. temperature, 55+/−10% relative humidity and 12-hour light/dark cycle (7 a.m.-7 p.m.).
# South Texas Accelerated Research Therapeutics (START) (San Antonio, Tex., USA) conducted this study. […] The 30 mg/kg dose was tolerated in preclinical safety studies and anticipated to result in exposures in excess of the therapeutic range for 28 days. Body weight, TV and animal observations were collected twice per week to day 18 (termination) for vehicle control mice and twice per week to day 28 (termination) for each of the other 3 groups. Mean±SD body weight and TV were analyzed with Kruskal-Wallis and Dunn multiple comparison test at day 18 and with Mann Whitney test at day 28 with statistical significance at p<0.05.
# [2] = CIPN-reversal study: body weight, tolerability, mortality; format: in vivo
# Experimental: Rats were housed 2-3 per cage under similar environmental conditions as nude mice in the interference study.
# (§1) Wistar female rats (n=52) (Envigo, Correzzano, Italy) at 10-11 weeks of age were utilized. The study was divided into 2 phases of 4 weeks each. […] Body weight was measured periodically during phase 1 from baseline (day 1) to day 28. At baseline and conclusion of phase 1 (day 28), nerve conduction velocity (NCV) was performed on caudal and sciatic nerves and Dynamic Aesthesiometer Test (DAT) measured mechanical threshold (MT) of the hind paw. […] Body weight was measured periodically from baseline (day 28) to day 56 (termination). NCV and MT were measured in all 4 groups at baseline and on day 35 and 56. […] At termination, sciatic nerves were obtained for β-tubulin polymerization and skin samples were procured for intraepidermal nerve fiber (IENF) density and histopathology.
# [3] = tested on: caudal nerves (BTZ-induced CIPN); assay: CIPN-reversal study: caudal nerve conduction velocity; format: in vivo, Wistar rat
# Experimental: as §1
# (§2) NCV (meters/second) was obtained from caudal and sciatic nerves with an electromyography tool (Myto 2, ABN Neuro, Firenze, Italy). Caudal NCV was measured by placement of recording needle electrodes distally in the tail with stimulating needle electrodes 5 cm and 10 cm proximal to recording point. Peak latencies of potentials recorded at the 2 sites after nerve stimulation were determined and NCV was calculated. Sciatic NCV was determined by placement of needle recording electrodes near ankle bone and stimulating electrodes close to thigh. Peak latencies were recorded similar to caudal nerve and NCV was calculated. NCV was performed under standard conditions in a temperature-controlled facility (22±2° C.) and rats were under isoflurane anesthesia with monitoring of vital signs.
# [4] = tested on: sciatic nerves (BTZ-induced CIPN); assay: CIPN-reversal study: sciatic nerve conduction velocity; format: in vivo, Wistar rat
# Experimental: as §1, §2
# [5] = BTZ vs BTZ+ CX-8998 3 mg/kg, P > 0.05 ns
# [6] = BTZ vs BTZ+ CX-8998 10 mg/kg, P > 0.05 ns
# [7] = BTZ vs BTZ+ CX-8998 30 mg/kg, P > 0.05 ns
# [8] = BTZ+ CX-8998 3 mg/kg vs BTZ+ CX-8998 10 mg/kg, P > 0.05 ns
# [9] = BTZ+ CX-8998 3 mg/kg vs BTZ+ CX-8998 30 mg/kg, P > 0.05 ns
# [10] = BTZ+ CX-8998 10 mg/kg vs BTZ+ CX-8998 30 mg/kg, P > 0.05 ns
# [11] = CTRL vs BTZ+ CX-8998 10 mg/kg, P > 0.05 ns
# [12] = CTRL vs BTZ+ CX-8998 30 mg/kg, P > 0.05 ns
structure (smiles),measurement,setting,value
"CC(C)c1ccc(CC(=O)N[C@H](C)c2ccc(OCC(F)(F)F)cn2)cc1 [CX-8998, (R)-2-(4-Isopropylphenyl)-N-(1-(5-(2,2,2-Trifluoroethoxy)pyridin-2-yl)ethyl)acetamide]","TUMOR GROWTH DAY 18, Difference in rank sum (Dunn's Multiple Comparison Test)","[1]; BTZ vs BTZ+ CX-8998, P > 0.05 ns",−3.000
same,"TUMOR GROWTH DAY 18, Difference in rank sum (Dunn's Multiple Comparison Test)","[1]; Vehicle Control vs BTZ+ cx-8998, P < 0.05 *",10.13
same,tolerability,[2]; BTZ in combination with CX-8998,well tolerated
same,mortality (animals),[2]; one each in combinations of BTZ with 3 mg/kg and 10 mg/kg CX-8998,two
same,body weight change,"[2]; weeks 5 and 8, BTZ in combination with 3, 10 and 30 mg/kg CX-8998",not significantly different
same,"NCV OF CAUDAL NERVE (5 weeks), Difference in rank sum (Dunn's Multiple Comparison Test)",[3]; [5],−11.21
same,"NCV OF CAUDAL NERVE (8 weeks), Difference in rank sum (Dunn's Multiple Comparison Test)",[3]; [5],−11.55
same,"NCV OF CAUDAL NERVE (8 weeks), Difference in rank sum (Dunn's Multiple Comparison Test)","[3]; BTZ vs BTZ+ CX-8998 10 mg/kg, P < 0.01 **",−22.36
same,"NCV OF CAUDAL NERVE (5 weeks), Difference in rank sum (Dunn's Multiple Comparison Test)",[3]; [6],−4.625
same,"NCV OF CAUDAL NERVE (8 weeks), Difference in rank sum (Dunn's Multiple Comparison Test)","[3]; BTZ vs BTZ+ CX-8998 30 mg/kg, P < 0.001 ***",−30.42
same,"NCV OF CAUDAL NERVE (5 weeks), Difference in rank sum (Dunn's Multiple Comparison Test)",[3]; [7],−11.04
same,"NCV OF CAUDAL NERVE (5 weeks), Difference in rank sum (Dunn's Multiple Comparison Test)",[3]; [8],6.583
same,"NCV OF CAUDAL NERVE (8 weeks), Difference in rank sum (Dunn's Multiple Comparison Test)",[3]; [8],−10.82
same,"NCV OF CAUDAL NERVE (8 weeks), Difference in rank sum (Dunn's Multiple Comparison Test)","[3]; BTZ+ CX-8998 3 mg/kg vs BTZ+ CX-8998 30 mg/kg, P < 0.05 *",−18.87
same,"NCV OF CAUDAL NERVE (5 weeks), Difference in rank sum (Dunn's Multiple Comparison Test)",[3]; [9],0.1667
same,"NCV OF CAUDAL NERVE (5 weeks), Difference in rank sum (Dunn's Multiple Comparison Test)",[3]; [10],−6.417
same,"NCV OF CAUDAL NERVE (8 weeks), Difference in rank sum (Dunn's Multiple Comparison Test)",[3]; [10],−8.053
same,"NCV OF CAUDAL NERVE (8 weeks), Difference in rank sum (Dunn's Multiple Comparison Test)","[3]; CTRL vs BTZ+ CX-8998 3 mg/kg, P < 0.01 **",25.45
same,"NCV OF CAUDAL NERVE (5 weeks), Difference in rank sum (Dunn's Multiple Comparison Test)","[3]; CTRL vs BTZ+ CX-8998 3 mg/kg, P > 0.05 ns",4.542
same,"NCV OF CAUDAL NERVE (5 weeks), Difference in rank sum (Dunn's Multiple Comparison Test)",[3]; [11],11.13
same,"NCV OF CAUDAL NERVE (8 weeks), Difference in rank sum (Dunn's Multiple Comparison Test)",[3]; [11],14.64
same,"NCV OF CAUDAL NERVE (5 weeks), Difference in rank sum (Dunn's Multiple Comparison Test)",[3]; [12],4.708
same,"NCV OF CAUDAL NERVE (8 weeks), Difference in rank sum (Dunn's Multiple Comparison Test)",[3]; [12],6.583
same,"NCV OF SCIATIC NERVE (5 weeks), Difference in rank sum (Dunn's Multiple Comparison Test)",[4]; [5],6.667
same,"NCV OF SCIATIC NERVE (8 weeks), Difference in rank sum (Dunn's Multiple Comparison Test)",[4]; [5],−10.12
same,"NCV OF SCIATIC NERVE (8 weeks), Difference in rank sum (Dunn's Multiple Comparison Test)","[4]; BTZ vs BTZ+ CX-8998 10 mg/kg, P < 0.05 *",−19.26
same,"NCV OF SCIATIC NERVE (5 weeks), Difference in rank sum (Dunn's Multiple Comparison Test)",[4]; [6],2.583
same,"NCV OF SCIATIC NERVE (8 weeks), Difference in rank sum (Dunn's Multiple Comparison Test)","[4]; BTZ vs BTZ+ CX-8998 30 mg/kg, P < 0.05 *",−19.77
same,"NCV OF SCIATIC NERVE (5 weeks), Difference in rank sum (Dunn's Multiple Comparison Test)",[4]; [7],5.250
same,"NCV OF SCIATIC NERVE (5 weeks), Difference in rank sum (Dunn's Multiple Comparison Test)",[4]; [8],−4.083
same,"NCV OF SCIATIC NERVE (8 weeks), Difference in rank sum (Dunn's Multiple Comparison Test)",[4]; [8],−9.136
same,"NCV OF SCIATIC NERVE (5 weeks), Difference in rank sum (Dunn's Multiple Comparison Test)",[4]; [9],−1.417
same,"NCV OF SCIATIC NERVE (8 weeks), Difference in rank sum (Dunn's Multiple Comparison Test)",[4]; [9],−9.652
same,"NCV OF SCIATIC NERVE (5 weeks), Difference in rank sum (Dunn's Multiple Comparison Test)",[4]; [10],2.667
